Source: US20250296959A1, “B7-H3 TARGETING PEPTIDES AND CONSTRUCTS THEREOF” (Mariana Oncology Inc., priority 2024, published 2025)
Starred links: 1 amine or outer side, 2 acyl side, 3 side chain; linkers in the order of their positions; H or OH if unused. Positions of bridges follow the written chain, without caps; N, C: chain ends. Non-standard residues stand in square brackets, D forms with d. Residues, ends and D or L forms follow the SMILES beside them. *: point of attachment. X6 = CSCC[C@H](NC(=O)c1ccc(CNC(=O)CN2CCN(CC(=O)O)CCN(CC(=O)O)CCN(CC(=O)O)CC2)cc1)C(=O)N[C@H](C(=O)N[C@@H](CCCCN*)C(=O)O)C(C)C; Ala(piperidin-4-yl) = O=C([C@H](CC1CCN([*:3])CC1)N[*:1])[*:2]; DOTA = O=C(O)CN1CCN(CC(=O)O)CCN(CC(=O)*)CCN(CC(=O)O)CC1; Trp(5-F) = N[C@@H](Cc1c[nH]c2ccc(F)cc12)C(=O)O; X11 = O=C(CCCc1ccc(I)cc1)NCCOCCOCCOCCOCC(=O)*; Trp(2-Me) = Cc1[nH]c2ccccc2c1C[C@H](N)C(=O)O; 1Nal = N[C@@H](Cc1cccc2ccccc12)C(=O)O; Ala(4-THP) = N[C@@H](CC1CCOCC1)C(=O)O; Val(3-OH) = CC(C)(O)[C@H](N)C(=O)O; 4Pal = N[C@@H](Cc1ccncc1)C(=O)O; Chg = N[C@H](C(=O)O)C1CCCCC1; Tle = CC(C)(C)[C@H](N)C(=O)O; hLeu = CC(C)CC[C@H](N)C(=O)O; NMeS = CN[C@@H](CO)C(=O)O; Nle = CCCC[C@H](N)C(=O)O; Orn = NCCC[C@H](N)C(=O)O

molecular target: T1, human 4lg B7-H3 (Homo sapiens, UniProt Q5ZPR3); experiment: Affinity determination by surface plasmon resonance (SPR) to 4Ig B7-H3; details: SPR KD—25° C., 4Ig B7-H3; 25° C. flow cell temperature
T1 sequence (Q5ZPR3 29-534): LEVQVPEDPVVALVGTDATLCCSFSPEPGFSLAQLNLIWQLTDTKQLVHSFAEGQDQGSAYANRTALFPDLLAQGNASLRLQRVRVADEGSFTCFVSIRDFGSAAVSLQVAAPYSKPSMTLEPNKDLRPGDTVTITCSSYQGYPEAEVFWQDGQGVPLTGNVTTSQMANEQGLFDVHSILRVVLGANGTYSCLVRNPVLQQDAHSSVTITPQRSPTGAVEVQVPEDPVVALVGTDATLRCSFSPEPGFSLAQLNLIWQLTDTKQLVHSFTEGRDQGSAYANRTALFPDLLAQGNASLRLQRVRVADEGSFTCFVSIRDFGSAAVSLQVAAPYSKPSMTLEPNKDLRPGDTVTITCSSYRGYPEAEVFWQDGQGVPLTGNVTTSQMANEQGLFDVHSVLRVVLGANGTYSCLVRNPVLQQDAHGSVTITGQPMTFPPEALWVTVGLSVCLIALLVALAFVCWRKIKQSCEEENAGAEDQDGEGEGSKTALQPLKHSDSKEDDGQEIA

| Kd [µM] | SMILES |
| --- | --- |
| 0.001 to 0.01 | CCCC[C@H](NC(C)=O)C(=O)N[C@@H](Cc1ccc(O)cc1)C(=O)N[C@H]1CSSC[C@@H](C(=O)N[C@@H](Cc2c[nH]c3ccccc23)C(=O)N[C@@H](Cc2ccccc2)C(=O)N[C@H](C(N)=O)[C@@H](C)O)NC(=O)[C@H](Cc2ccc(O)cc2)NC(=O)[C@H](C(C)C)NC(=O)[C@H](CC(=O)O)NC(=O)[C@H](Cc2ccc(O)cc2)NC(=O)[C@H](CCCCN)NC(=O)CNC(=O)[C@H](C(C)C)NC1=O [compound 32, Ac-Nle-Y-C-V-G-K-Y-D-V-Y-C-W-F-Thr-CONH2] (Ac-[Nle]YCVGKYDVYCWFT-NH2; disulfide 3-11) |
| 0.01 to 0.1 | CCCC[C@H](NC(C)=O)C(=O)N[C@@H](Cc1ccc(O)cc1)C(=O)N[C@H]1CSSC[C@@H](C(=O)N[C@@H](Cc2c[nH]c3ccccc23)C(=O)N[C@@H](Cc2ccccc2)C(=O)N[C@@H](CCCN)C(=O)N[C@H](CCCCNC(=O)CN2CCN(CC(=O)O)CCN(CC(=O)O)CCN(CC(=O)O)CC2)C(N)=O)NC(=O)[C@H](Cc2ccc(O)cc2)NC(=O)[C@H](C(C)C)NC(=O)[C@H](CC(=O)O)NC(=O)[C@H](Cc2ccc(O)cc2)NC(=O)[C@H](CCCCN)NC(=O)CNC(=O)[C@H](C(C)C)NC1=O [compound 87, Ac-Nle-Y-C-V-G-K-Y-D-V-Y-C-W-F-Orn-dLys(DOTA)-CONH2] (Ac-[Nle]YCVGKYDVYCWF[Orn][dK](DOTA)-NH2; disulfide 3-11) |
| 0.01 to 0.1 | CC(=O)N[C@@H](CCC(C)C)C(=O)N[C@@H](Cc1ccc(O)cc1)C(=O)N[C@H]1CSSC[C@@H](C(=O)N[C@@H](Cc2cccc3ccccc23)C(=O)N[C@@H](Cc2ccccc2)C(=O)N(C)[C@@H](CO)C(=O)N[C@H](CCCCNC(=O)CN2CCN(CC(=O)O)CCN(CC(=O)O)CCN(CC(=O)O)CC2)C(N)=O)NC(=O)[C@H](C2CCCCC2)NC(=O)[C@H](C(C)C)NC(=O)[C@H](CC(=O)O)NC(=O)[C@H](Cc2ccncc2)NC(=O)[C@H](CCCCN)NC(=O)CNC(=O)[C@H](C(C)(C)C)NC1=O [compound 243, Ac-hLeu-Y-C-Tbg-G-K-4PyA-D-V-Chg-C-1Nal-F-NMeSer-dLys(DOTA)-CONH2] (Ac-[hLeu]YC[Tle]GK[4Pal]DV[Chg]C[1Nal]F[NMeS][dK](DOTA)-NH2; disulfide 3-11) |

same assay, conditions: SPR KD—37° C., 4Ig B7-H3; 37° C. flow cell temperature

| Kd [µM] | SMILES |
| --- | --- |
| < 0.001 | CC(=O)N[C@@H](CCC(C)C)C(=O)N[C@@H](Cc1ccc(O)cc1)C(=O)N[C@H]1CSSC[C@@H](C(=O)N[C@@H](Cc2c(C)[nH]c3ccccc23)C(=O)N[C@@H](Cc2ccccc2)C(=O)N[C@H](C(=O)N[C@H](CCCCNC(=O)CN2CCN(CC(=O)O)CCN(CC(=O)O)CCN(CC(=O)O)CC2)C(=O)O)C(C)(C)O)NC(=O)[C@H](Cc2ccc(O)cc2)NC(=O)[C@H](C(C)C)NC(=O)[C@H](CC(=O)O)NC(=O)[C@H](CC2CCOCC2)NC(=O)[C@H](CC2CCNCC2)NC(=O)CNC(=O)[C@H](C(C)(C)C)NC1=O [compound 492, Ac-hLeu-Y-C-Tbg-G-PipAla-ThpA-D-V-Y-C-2MeW-F-hydroxyVal-dLys(DOTA)-COOH] (Ac-[hLeu]YC[Tle]G[Ala(piperidin-4-yl)][Ala(4-THP)]DVYC[Trp(2-Me)]F[Val(3-OH)][dK](DOTA)-OH; disulfide 3-11) |
| 0.01 to 0.1 | CCCC[C@H](NC(C)=O)C(=O)N[C@@H](Cc1ccc(O)cc1)C(=O)N[C@H]1CSSC[C@@H](C(=O)N[C@@H](Cc2c[nH]c3ccccc23)C(=O)N[C@@H](Cc2ccccc2)C(=O)N[C@H](C(N)=O)[C@@H](C)O)NC(=O)[C@H](Cc2ccc(O)cc2)NC(=O)[C@H](C(C)C)NC(=O)[C@H](CC(=O)O)NC(=O)[C@H](Cc2ccc(O)cc2)NC(=O)[C@H](CCCCN)NC(=O)CNC(=O)[C@H](C(C)C)NC1=O [compound 32, Ac-Nle-Y-C-V-G-K-Y-D-V-Y-C-W-F-Thr-CONH2] (Ac-[Nle]YCVGKYDVYCWFT-NH2; disulfide 3-11) |
| 0.001 to 0.01 | CSCC[C@H](NC(=O)c1ccc(CNC(=O)CN2CCN(CC(=O)O)CCN(CC(=O)O)CCN(CC(=O)O)CC2)cc1)C(=O)N[C@H](C(=O)N[C@@H](CCCCNC(=O)[C@@H](NC(=O)[C@H](Cc1ccccc1)NC(=O)[C@H](Cc1c[nH]c2ccc(F)cc12)NC(=O)[C@@H]1CSSC[C@H](NC(=O)[C@H](Cc2ccc(O)cc2)NC(=O)[C@H](CCC(C)C)NC(C)=O)C(=O)N[C@@H](C(C)(C)C)C(=O)NCC(=O)N[C@@H](CC2CCNCC2)C(=O)N[C@@H](CC2CCOCC2)C(=O)N[C@@H](CC(=O)O)C(=O)N[C@@H](C(C)C)C(=O)N[C@@H](Cc2ccc(O)cc2)C(=O)N1)C(C)(C)O)C(=O)O)C(C)C [Cpd #482, Ac-hLeu-Y-C-Tbg-G-PipAla-ThpA-D-V-Y-C-5FW-F-hydroxyVal-εLys(Val-Met-AmBz-DOTA)-COOH] (Ac-[hLeu]YC[Tle]G[Ala(piperidin-4-yl)][Ala(4-THP)]DVYC[Trp(5-F)]F[Val(3-OH)]-X6; disulfide 3-11) |
| 0.001 to 0.01 | CC(=O)N[C@@H](CCC(C)C)C(=O)N[C@@H](Cc1ccc(O)cc1)C(=O)N[C@H]1CSSC[C@@H](C(=O)N[C@@H](Cc2c[nH]c3ccc(F)cc23)C(=O)N[C@@H](Cc2ccccc2)C(=O)N[C@H](C(=O)N[C@H](CCCCNC(=O)CN2CCN(CC(=O)O)CCN(CC(=O)O)CCN(CC(=O)O)CC2)C(=O)O)C(C)(C)O)NC(=O)[C@H](Cc2ccc(O)cc2)NC(=O)[C@H](C(C)C)NC(=O)[C@H](CC(=O)O)NC(=O)[C@H](CC2CCOCC2)NC(=O)[C@H](CC2CCN(C(=O)COCCOCCOCCOCCNC(=O)CCCc3ccc(I)cc3)CC2)NC(=O)CNC(=O)[C@H](C(C)(C)C)NC1=O [Cpd #364, Ac-hLeu-Y-C-Tbg-G-Pip(PEG4-AB)Ala-ThpA-D-V-Y-C-5FW-F-hydroxyVal-dLys(DOTA)-COOH] (Ac-[hLeu]YC[Tle]G[Ala(piperidin-4-yl)](X11)[Ala(4-THP)]DVYC[Trp(5-F)]F[Val(3-OH)][dK](DOTA)-OH; disulfide 3-11) |
